Reference: US5994375A, “Benzamidine derivatives substituted by amino acid and hydroxy acid derivatives and their use as anti-coagulants” (Berlex Laboratories, Inc., priority 1996, dated 1999)
Square brackets hold non-standard residues; d marks the D form. Peptide text beside a SMILES is read from it. * marks the point of attachment. pNA = O=[N+]([O-])c1ccc(N*)cc1

Experiments:
[1] = target: T1, Human tissue plasminogen activator (tPA) (Two chains, Sigma) (Homo sapiens, UniProt P00750); experiment: In vitro chromogenic assay for tissue plasminogen activator (cleavage of peptide p-nitroanilide S2288); assay type: biochemical; conditions: substrate concentration stated equal to its Km under the assay conditions; 10 nM tPA, pH 7.5, ambient temperature
T1 construct: purchased Sigma
T1 sequence (P00750 311-562 limits assumed): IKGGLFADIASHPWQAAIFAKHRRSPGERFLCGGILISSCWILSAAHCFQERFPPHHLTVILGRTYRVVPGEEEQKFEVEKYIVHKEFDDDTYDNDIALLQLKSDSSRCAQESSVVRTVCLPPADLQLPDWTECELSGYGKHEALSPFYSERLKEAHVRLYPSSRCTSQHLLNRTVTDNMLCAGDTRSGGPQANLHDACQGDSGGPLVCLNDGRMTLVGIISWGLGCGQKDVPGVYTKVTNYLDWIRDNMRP
T1 sequence (P00750 36-310 partner limits assumed): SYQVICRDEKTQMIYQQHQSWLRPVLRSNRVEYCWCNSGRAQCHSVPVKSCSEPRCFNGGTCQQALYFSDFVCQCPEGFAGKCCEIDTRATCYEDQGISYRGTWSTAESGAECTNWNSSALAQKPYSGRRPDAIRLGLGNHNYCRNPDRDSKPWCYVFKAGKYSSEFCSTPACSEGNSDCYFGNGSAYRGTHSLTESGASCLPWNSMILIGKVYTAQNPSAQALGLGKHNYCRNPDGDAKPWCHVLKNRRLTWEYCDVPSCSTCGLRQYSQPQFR
Procedure: (§1) The activities were determined as an initial rate of cleavage of the peptide p-nitroanilide by the enzyme. The cleavage product, p-nitroaniline, absorbs at 405 nm with a molar extinction coefficient of 9920 M^-1 cm^-1.
(§2) 50 mM TrisHCl, 150 mM NaCl, 2.5 mM CaCl2, and 0.1% polyethylene glycol 6000, pH 7.5.
3. Human tissue plasminogen activator (tPA) (Two chains, Sigma) stock solution: 1 mg/mL, stored at -80° C. (working solution (2×): 1361 ng/mL in assay buffer, prepare prior to use).
3. S2288 (tPA assay) stock solution: 10 mM in dH2 O, stored at 4° C. (working solution (4×): 1484 μM in assay buffer).
(§3) Assays were performed in 96-well microtiter plates in a total volume of 200 μl. […] Concentrations of the standard inhibitor compound in the assay were from 5 μM to 0.021 μM in 1 to 3 dilution. Concentration of the test compounds in the assay typically were from 10 μM to 0.041 μM in 1 to 3 dilution. For potent test compounds, the concentrations used in the factor Xa assay were further diluted 100 fold (100 nM to […]) or 1000 fold (10 nM to 0.041 nM). All substrate concentrations used are equal to their Km values under the present assay conditions. Assays were performed at ambient temperature. […]
(§4) The enzyme kinetics were measured at 405 nm at 10 seconds intervals for five minutes in a THERMOmax plate reader at ambient temperature.

[2] = target: T2, Human thrombin (Homo sapiens, UniProt P00734); experiment: In vitro chromogenic assay for thrombin (cleavage of peptide p-nitroanilide S2302); assay type: biochemical; conditions: substrate concentration stated equal to its Km under the assay conditions; 20 nM thrombin, pH 7.5, ambient temperature
T2 construct: Human thrombin stock solution; purchased Enzyme Research Lab
Procedure: as §1, §2
2. Human thrombin stock solution: Stored at -80° C. (working solution (2×): 1200 ng/mL or 40 nM in assay buffer, prepare prior to use).
2. S2302 (Thrombin assay) stock solution: 10 mM in dH2 O, stored at 4° C. (working solution (4×): 1200 μM in assay buffer).
as §3, with “nM).” for “nM). All substrate concentrations used are equal to their Km values under the present assay conditions. Assays were performed at ambient temperature.”
as §4
Enzyme rates were calculated as mOD/min based on the first two minutes readings. The IC50 values were determined by fitting the data to the log-logit equation (linear) or the Morrison equation (non-linear) with an EXCEL spread-sheet. […]

| Km [1] [µM] | Km [2] [µM] | Compound |
| --- | --- | --- |
| 371 |  | CC[C@@H](C)[C@@H](N)C(=O)N1CCC[C@H]1C(=O)N[C@@H](CCCN=C(N)N)C(=O)Nc1ccc([N+](=O)[O-])cc1 [Example S2288] (H-[dI]-Pro-Arg-pNA) |
|  | 300 | N=C(N)NCCC[C@H](NC(=O)[C@H](Cc1ccccc1)NC(=O)[C@H]1CCCN1)C(=O)Nc1ccc([N+](=O)[O-])cc1 [Example S2302] (H-[dP]-Phe-Arg-pNA) |
